Series [1] can be described thus: 1H NMR comparison titration with NBu4Cl (Cl^− binding). Particulars: 10% DMSO-d6/CD3CN. The text has this:
(§1) The higher selectivity is likely due to the pyridine lone pair acting as a hydrogen bond acceptor, which provides an additional stabilizing interaction for HS^− and a destabilizing interaction for Cl^−. The phenyl core of host 1 donates a hydrogen bond to both anionic guests, resulting in decreased selectivity for hydrosulfide, even if this CH hydrogen bond is an important component to the high overall binding energy.

The nature of series [2]: Reversibility of HS^− binding (NBu4SH then Zn(OAc)2, 1H NMR). To be noted: hydrogen-bond binding; for 1: 1.0 mM in 10% DMSO-d6/CD3CN, 2 equiv NBu4SH, 4 equiv Zn(OAc)2, 5 more equiv NBu4SH.
Series [3] in a line: 1H NMR titration with NBu4SH (HS^− binding). To be noted: 10% DMSO-d6/CD3CN; for selectivity for HS^− over Cl^−: 1H NMR titration data. The method, then: To investigate whether HS^− is a suitable anionic guest for compounds 1-3, we titrated NBu4SH into 0.5-1.0 mM solution of each host in 10% DMSO-d6/CD3CN and monitored the titrations by ^1H NMR spectroscopy. […] For example, upon addition of HS^− to a 0.988 mM solution of 1, the aryl CHa shifted from 7.99 to 9.24 ppm, and the NHb and NHc urea protons shift downfield from 7.94 and 8.92 to 8.63 and 11.18 ppm, respectively. […] We also confirmed that the observed changes in the NMR spectra upon HS^− addition were not merely due to deprotonation of the urea NH groups. […] Titration data of HS^− with the host fit to simple 1:1 binding isotherm models, and a new, upfield-shifted peak appears for bound hydrosulfide.
as §1

A short description of series [4]: UV-Vis titration with NBu4Cl in MeCN (Cl^− binding). The method, then: (§2) To further investigate the difference in anion selectivity, binding constants were also measured at lower concentrations by UV-Vis spectroscopy in MeCN; the data are summarized in Table 1.
A short description of series [5]: UV-Vis titration with NBu4SH in MeCN (HS^− binding). To be noted: for HS^− binding constant: no DMSO co-solvent, 10 μM host. The method, then: as §2
We expected that removal of the DMSO co-solvent would increase the observed binding affinities since acetonitrile is a slightly less competitive solvent (especially as a hydrogen bond acceptor).

Series [6] is described as follows: 13C{1H} NMR check of alkyne reactivity toward HS^−. It counts as physicochemical. To be noted: 2.3 mM host, 10 equivalents of HS^−.

As to `COc1ccc(NC(=O)Nc2ccc(C(C)(C)C)cc2C#Cc2cccc(C#Cc3cc(C(C)(C)C)ccc3NC(=O)Nc3ccc(OC)cc3)c2)cc1` [Host 1], in series [1], the “Cl^− ΔG” value is -4.43 kcal/mol. Also, the “reversibility of HS^− binding” value in series [2] was “confirming the reversibility of binding”. In series [3], the “HS^− ΔG” value was -5.05 kcal/mol and the “selectivity for HS^− over Cl^−” value is on record as 2.8 fold. Further, the “Cl^− ΔG” value in series [4] is -6.18 kcal/mol. For the same compound, in series [5], the “HS^− ΔG” value is -6.76 kcal/mol. Moreover, in series [5] (UV-Vis), the “selectivity HS^−:Cl^−” value was “remained similar to the 10% DMSO-d6/CD3CN system” and the “HS^− binding constant” value is 90,300 M^−1. In addition, the “reactivity of host alkynes toward HS^−” value in series [6] was “alkynes were unreactive toward HS^−”.
Turning to `COc1ccc(NC(=O)Nc2ccc(C(C)(C)C)cc2C#Cc2cccc(C#Cc3cc(C(C)(C)C)ccc3NC(=O)Nc3ccc(OC)cc3)n2)cc1` [Host 2], the “Cl^− ΔG” value was -3.19 kcal/mol in series [1] and -4.35 kcal/mol in series [4]. Moreover, the “HS^− ΔG” value in series [3] is -4.15 kcal/mol; in series [5], -5.86 kcal/mol. Also, the “selectivity for HS^− over Cl^−” value in series [3] stood at 6 fold. Also, the “HS^− binding constant” value in series [5] (UV-Vis) is listed as ~25,000 M^−1.
In the case of `CC(C)(C)c1ccc(NC(=O)Nc2ccccc2)c(C#Cc2cccc(C#Cc3cc(C(C)(C)C)ccc3NC(=O)Nc3ccccc3)n2)c1` [Host 3], the “Cl^− ΔG” value in series [1] is -3.19 kcal/mol; in series [4], -4.20 kcal/mol. The “HS^− ΔG” value in series [3] is -4.25 kcal/mol; in series [5], -6.07 kcal/mol. The “selectivity for HS^− over Cl^−” value in series [3] came out at 6 fold. In series [5] (UV-Vis), the “HS^− binding constant” value is given as ~25,000 M^−1.

Values taken from patent publication US11187690B2, “Synthetic receptors for hydrosulfide” (University of Oregon, priority 2016, dated 2021).
